“Also recorded” adds a separate entry of the source.
What was measured:
[1] = biological target: α1-ARs; conditions: read-out: calculated Ki; cited from earlier work
[2] = biological target: T1, α1A-AR (Homo sapiens, UniProt P35348); experiment: Competition binding with [125I]HEAT at α1A-AR (Rat-1 fibroblast membranes); set-up: expressed in transfected cells; host or cells: Rat-1 fibroblast cells
T1 sequence (P35348 1-466): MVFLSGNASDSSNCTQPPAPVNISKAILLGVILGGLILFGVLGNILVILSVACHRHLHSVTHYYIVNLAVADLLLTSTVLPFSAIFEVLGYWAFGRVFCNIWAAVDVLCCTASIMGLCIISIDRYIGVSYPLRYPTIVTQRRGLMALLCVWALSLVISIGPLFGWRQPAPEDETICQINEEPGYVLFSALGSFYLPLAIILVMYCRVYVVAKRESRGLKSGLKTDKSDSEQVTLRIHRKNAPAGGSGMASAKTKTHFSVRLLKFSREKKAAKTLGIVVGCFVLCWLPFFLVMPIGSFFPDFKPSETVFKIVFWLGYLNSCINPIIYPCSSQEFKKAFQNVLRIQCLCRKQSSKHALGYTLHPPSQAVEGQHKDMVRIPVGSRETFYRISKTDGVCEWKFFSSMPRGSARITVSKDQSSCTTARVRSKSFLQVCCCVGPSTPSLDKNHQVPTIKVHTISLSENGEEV
Protocol: Competition binding assays: […] Assays were performed in duplicate in HEM buffer, in a total assay volume of 1000 μl. […] The above conditions will convert all the conformations of the receptor into a single low affinity site. To show both high and low affinity sites of the receptor (typically seen with GPCR agonists), the GTP is removed from the binding buffer. Nonspecific binding was determined experimentally in the presence of 10^−4 M phentolamine. Unbound radioactivity was separated from membrane-bound radioactivity by filtration through Whatman GF/C filter paper. Filters are washed five times with 5 ml of cold HEM buffer containing 0.5 mMGTP (if added to the binding buffer but not if it was not added to the binding buffer). Bound radioactivity remaining on the filters was counted on an ICN gamma counter operating at 79.8% efficiency. Data are analyzed using Graphpad Prism.

[3] = biological target: T1, α1A-AR; experiment: cAMP assay at α1A-AR; type: cell-based; set-up: expressed in transfected cells; host or cells: Rat-1 fibroblast cells; conditions: for effect on epinephrine-mediated cAMP response at the α1A-AR: 10^−5M to 10^−7M of compound; for effect on norepinephrine-mediated cAMP response at the α1A-AR: 10^−5M to 10^−9M of compound
Protocol: cAMP assay: Cells expressing a single α1-adrenergic receptor subtype are washed and re-plated into 24-well plates in DMEM media without serum at approximately 2.4×10^4 cells/well. Cells are allowed to rest till the next day in a CO2 incubator at 37° C. The cells are washed twice with DMEM (no serum), then 1 ml of DMEM is added to each well. Cells are pre-incubated for 45 mins-1 hour at 37° C. in a CO2 incubator with 10 uM propranolol, followed by 100 uM IBMX for 30 minutes. Final DMSO concentration is at 0.05%. Norepinephrine or epinephrine is added in a dose response (1 dose per well) in addition to one of the Compounds 1-10 at one concentration (i.e. 10^−5M). Cells are incubated for another 30 mins at 37° C. in a CO2 incubator. The reaction is concluded by aspirating the media and adding 0.1M HCL. The mixture is incubated for 20 mins at room temperature. The cells are scraped and suspended until homogenous. The mixture is centrifuged at 1000 g for 10 mins and the supernatant assayed the same day according to a manufacturer's cAMP kit (Cayman Select Cyclic AMP EIA kit #501040).

[4] = biological target: T1, α1A-AR; experiment: Total inositol phosphate assay at α1A-AR; type: cell-based; set-up: expressed in transfected cells; host or cells: Rat-1 fibroblast cells; conditions: for stimulation of inositol phosphate / agonist activity by the compound by itself: compound alone
Protocol: Total Inositol Phosphate assay: Cells expressing a single α1-adrenergic receptor subtypes are washed and re-plated into 6-well plates containing DMEM media at approximately 5×10^5 cells/well. Cells are allowed to rest till the next day in a CO2 incubator at 37° C. The cells are washed twice with DMEM (no serum), then 2 ml of DMEM is added to each well. 2 ul of ^3H-inositol (at 1 uCi/mL, Perkin-Elmer NET 114 005MC) and 10 mM LiCl is added to each well. The cells are incubated for 1 hour at 37° C. in a CO2 incubator. […] The cells are incubated again for 1 hour at 37° C. in a CO2 incubator. The media is aspirated and 1 mL of ice-cold 0.4M perchloric acid is added. The cells are scraped, transferred to a vial, then 1 mL 0.72M KOH/0.6M KHCO3 is added, the tube vortexed and the contents centrifuged at 2000 rpm for 10 mins. The supernatant is removed and applied to BioRad polyprep columns packed with 1 mL of AG1-X8 resin (BioRad AG1-X8 resin 100-200 mesh #140-1444) in 0.1M formic acid in a holding tray which is over a plastic catch tray. The supernatant is allowed to naturally drip through the column then washed with 8 ml of 0.1M formic acid (2 ml at a time). The columns are transferred via the holding tray to a box of 20 ml scintillation vials so that the columns drip directly into the vials. Total inositol phosphates are eluted off the column with 2 ml of 0.1M formic acid/1M ammonium formate. The columns are eluted a second time into a new scintillation vial with another 2 ml of 0.1M formic acid/1M ammonium formate. 18 ml of Ecoscint A is added to each scintillation vial and vortexed. The vials are allowed to dark adapt overnight at room temperature to reduce autofluorescence. The vials are counted in a scintillation counter on the tritium channel and the cpms from the first and second fractions eluted off the columns are added together.

[5] = system: Normal mice; conditions: cited from earlier work
[6] = biological target: T1, α1A-AR; experiment: Effect of compound on binding affinity of norepinephrine, epinephrine or other ligands at α1A-AR; set-up: expressed in transfected cells; host or cells: Rat-1 fibroblast cells; conditions: for effect on binding affinity of epinephrine at the α1A-AR: 10^−5M (highest dose tested); for effect on binding affinity of norepinephrine at the α1A-AR: fixed dose of compound, 10^−5M to 10^−9M
Protocol: Competition binding assays: These compounds were characterized for their ligand binding properties at the α1-AR subtypes. The binding affinities of Compounds 1-10 were determined in a series of competition-binding experiments with the α1-AR-selective antagonist [^125I]HEAT as the radioligand. Assays were performed in duplicate in HEM buffer, in a total assay volume of 1000 μl. Radioligand binding assays are composed of 5 ug of membranes, harvested from Rat-1 fibroblast cells expressing only one of the alpha1-AR subtypes, HEM buffer containing GTP (composed of 20 mM HEPES, pH 7.4, 1.4 mM EGTA, 12.5 mM MgCl2, pH to 7.4), 0.5 mM GTP, 35-80 pM^125I-HEAT, and various doses of norepinephrine or epinephrine and incubated with shaking at 25° C. for 1-2 hours. The above conditions will convert all the conformations of the receptor into a single low affinity site. To show both high and low affinity sites of the receptor (typically seen with GPCR agonists), the GTP is removed from the binding buffer. Nonspecific binding was determined experimentally in the presence of 10^−4 M phentolamine. Unbound radioactivity was separated from membrane-bound radioactivity by filtration through Whatman GF/C filter paper. Filters are washed five times with 5 ml of cold HEM buffer containing 0.5 mMGTP (if added to the binding buffer but not if it was not added to the binding buffer). Bound radioactivity remaining on the filters was counted on an ICN gamma counter operating at 79.8% efficiency. Data are analyzed using Graphpad Prism.
To determine the effects of compounds 1-10 on the binding affinity of norepinephrine or epinephrine, the competition binding assay was repeated as above with one dose of each individual compound (i.e. 10^−5M) added to each concentration point. Data are normalized to the norepinephrine or epinephrine binding curve alone without the addition of the compound to measure its effect on binding.

COc1cc2nc(N3CCN(C(=O)c4ccco4)CC3)nc(N)c2cc1OC [prazosin]
Ki [1]: 1 nM

Cc1c(OCC2=NCCN2)ccc(Cl)c1NS(C)(=O)=O.Cl [RO115-1240]
binding behaviour against radiolabeled antagonist 125I-HEAT (full inhibition; competitive or allosteric) [2]: competitive not allosteric behavior
selectivity for the α1A-AR over the α1B-AR and α1D-AR subtypes [2]: 100 fold
PAM activity / PAM type [3]: no evidence of PAM activity
effect on epinephrine-mediated cAMP response at the α1A-AR [3]: competitive, not PAM behavior; also recorded: shift the curve to the right to lower potency (inhibition)
effect on norepinephrine-mediated cAMP response at the α1A-AR [3]: antagonist at cAMP; also recorded: competitive, not PAM behavior; also recorded: shift the curve to the right to lower potency (inhibition)
effect on epinephrine-mediated inositol phosphate response at the α1A-AR [4]: competitive/noncompetitive partial agonism, not PAM behavior
effect on norepinephrine-mediated inositol phosphate response at the α1A-AR [4]: competitive/noncompetitive partial agonism, not PAM behavior
stimulation of inositol phosphate / agonist activity by the compound by itself [4]: weak partial agonist; also recorded: significant IP response on its own

c1ccc(C2CC2)c(OCC2=NCCN2)c1 [cirazoline]
cognition [5]: increased
neurogenesis [5]: increased
effect on binding affinity of epinephrine at the α1A-AR [6]: totally inhibit the binding
effect on binding affinity of epinephrine at the α1A-AR ([6]; listed as Cirazoline): fully inhibit
effect on binding affinity of norepinephrine at the α1A-AR [6]: totally inhibit the binding
effect on binding affinity of norepinephrine at the α1A-AR ([6]; listed as Cirazoline): does not increase the affinity of norepinephrine
PAM activity / PAM type [3]: no evidence of PAM activity
effect on epinephrine-mediated cAMP response at the α1A-AR [3]: competitive, not PAM behavior
effect on norepinephrine-mediated cAMP response at the α1A-AR [3]: competitive, not PAM behavior
effect on epinephrine-mediated inositol phosphate response at the α1A-AR [4]: competitive/noncompetitive partial agonism, not PAM behavior
effect on norepinephrine-mediated inositol phosphate response at the α1A-AR [4]: competitive/noncompetitive partial agonism, not PAM behavior
stimulation of inositol phosphate / agonist activity by the compound by itself [4]: full agonist at the IP response; also recorded: strong agonist at the IP response

Source: US12384751B2, “Allosteric activators of the ALPHA1A-adrenergic receptor” (The Cleveland Clinic Foundation, priority 2019, dated 2025)
